Reference: ChEMBL document CHEMBL3399985, “Rational design, synthesis and structure-activity relationships of 4-alkoxy- and 4-acyloxy-phenylethylenethiosemicarbazone analogues as novel tyrosinase inhibitors” (Bioorg Med Chem, 2015)
Activity calls are given as the source filed them. The calls are words filed in the database; no cut-off is given here.

target: T1, Tyrosinase (Agaricus bisporus) (UniProt O42713); experiment: Reversible inhibition of mushroom tyrosinase using L-DOPA as substrate preincubated at 0.2 to 0.6 uM for 10 mins by spectrophotometry
T1 sequence (whole entry): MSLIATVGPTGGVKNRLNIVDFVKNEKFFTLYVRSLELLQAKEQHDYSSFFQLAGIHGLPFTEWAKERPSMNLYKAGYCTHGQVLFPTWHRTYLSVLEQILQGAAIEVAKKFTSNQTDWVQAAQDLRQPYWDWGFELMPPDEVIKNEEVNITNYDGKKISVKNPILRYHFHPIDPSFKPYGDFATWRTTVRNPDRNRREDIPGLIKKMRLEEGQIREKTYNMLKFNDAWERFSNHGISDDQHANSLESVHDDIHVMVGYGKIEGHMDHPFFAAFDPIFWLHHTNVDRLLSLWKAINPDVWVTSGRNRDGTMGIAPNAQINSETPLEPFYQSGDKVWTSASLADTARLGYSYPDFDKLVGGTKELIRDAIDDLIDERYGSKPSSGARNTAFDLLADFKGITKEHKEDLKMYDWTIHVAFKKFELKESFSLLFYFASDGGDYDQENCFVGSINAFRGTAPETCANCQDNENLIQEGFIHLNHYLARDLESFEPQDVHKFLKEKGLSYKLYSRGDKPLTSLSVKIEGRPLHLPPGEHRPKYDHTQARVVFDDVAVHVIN

inhibition	SMILES
Active	C/C(Cc1ccc(OCc2ccccc2)cc1)=N\NC(N)=S

target: T1, Tyrosinase (Agaricus bisporus); experiment: Competitive inhibition of mushroom tyrosinase using L-DOPA as substrate preincubated at 0.2 to 0.6 uM for 10 mins by Lineweaver-Burk double reciprocal plot method

inhibition	SMILES
Active	C/C(Cc1ccc(OCc2ccccc2)cc1)=N\NC(N)=S

target: T1, Tyrosinase (Agaricus bisporus); experiment: Competitive inhibition of mushroom tyrosinase using L-DOPA as substrate preincubated at 0.1 to 0.3 uM for 10 mins by Lineweaver-Burk double reciprocal plot method

inhibition	SMILES
Active	C/C(CCc1ccc(OCc2ccccc2)cc1)=N\NC(N)=S

target: T2, Tyrosinase (Agaricus bisporus, UniProt O42713)
T2 sequence (O42713 whole entry): T1 sequence (whole entry)
Description: Inhibition of mushroom tyrosinase using L-DOPA as substrate preincubated for 10 mins by spectrophotometry

SMILES	IC50 [nM]
C/C(CCc1ccc(OCc2ccccc2)cc1)=N\NC(N)=S	217
COc1ccc(CC/C(C)=N/NC(=S)NN)cc1	208000
C/C(Cc1ccc(OCc2ccccc2)cc1)=N\NC(N)=S	340
C/C(CCc1ccc(OC(=O)c2ccccc2)cc1)=N\NC(N)=S	156
NNC(=S)NN	178000
CCOc1ccc(CC/C(C)=N/NC(N)=S)cc1	209
C/C(CCc1ccc(O)cc1)=N\NC(=S)NN	126000
CC(=O)Oc1ccc(CC/C(C)=N/NC(N)=S)cc1	72
CCCCCOc1ccc(C/C(C)=N/NC(N)=S)cc1	613
C/C(CCc1ccc(OCc2ccc(Br)cc2)cc1)=N\NC(N)=S	438
C/C(CCc1ccc(OCCCC(=O)O)cc1)=N\NC(N)=S	678
CCC(CC)Oc1ccc(CC/C(C)=N/NC(N)=S)cc1	445
CCCOc1ccc(CC/C(C)=N/NC(N)=S)cc1	264

More lines, in order of falling IC50, values ahead:

IC50 [nM]	SMILES
232000	CCCCOc1ccc(CC/C(C)=N/NC(=S)NN)cc1
224000	CCCCOc1ccc(C/C(C)=N/NC(=S)NN)cc1
159000	COc1ccc(C/C(C)=N/NC(=S)NN)cc1
110000	COc1ccc(/C(C)=N/NC(=S)NN)cc1
2710	C/C(Cc1ccc(O)cc1)=N\NC(N)=S
865	CCCCCCCCOc1ccc(CC/C(C)=N/NC(N)=S)cc1
835	C/C(CCc1ccc(OCCCc2ccccc2)cc1)=N\NC(N)=S
754	CCCCCCOc1ccc(CC/C(C)=N/NC(N)=S)cc1
593	C/C(CCc1ccc(OCC(=O)O)cc1)=N\NC(N)=S
515	CCOC(=O)COc1ccc(CC/C(C)=N/NC(N)=S)cc1
478	CCOC(=O)CCCOc1ccc(C/C(C)=N/NC(N)=S)cc1
475	C/C(CCc1ccc(OCCC(C)C)cc1)=N\NC(N)=S
412	CCCCCOc1ccc(CC/C(C)=N/NC(N)=S)cc1
328	CCOC(=O)CCCOc1ccc(CC/C(C)=N/NC(N)=S)cc1
288	C/C(CCc1ccc(OC(=O)C(C)C)cc1)=N\NC(N)=S
272	CCCCOc1ccc(CC/C(C)=N/NC(N)=S)cc1
188	COc1ccc(CC/C(C)=N/NC(N)=S)cc1

target: T1, Tyrosinase (Agaricus bisporus); experiment: Reversible inhibition of mushroom tyrosinase using L-DOPA as substrate preincubated at 0.1 to 0.3 uM for 10 mins by spectrophotometry

inhibition	SMILES
Active	C/C(CCc1ccc(OCc2ccccc2)cc1)=N\NC(N)=S
